These results are taken from patent US20240408096A1, “DOSING REGIMENS FOR ORAL ALK2 KINASE INHIBITORS” (BioCryst Pharmaceuticals, Inc., priority 2020, published 2024).

A value given as a limit tells only on which side of the number the result lay.

The nature of data set [1]: Phase 1 Part 2 (MAD) safety and tolerability. Particulars: healthy subjects. Type of data set: in vivo, human. The procedure: The primary outcome measure of Part 1 and Part 2 will be: (1) measurement of the safety and tolerability by subject incidence of graded treatment-emergent adverse events (TEAEs), laboratory abnormalities, and changes to vital signs, ECGs, cardiac telemetry, and physical examination findings.
Four sequential MAD cohorts were dosed.
For each cohort of Part 2, the daily dose of study drug was administered as a single dose (1 time daily or QD). Similar to Part 1 of the study, following a screening period to determine eligibility, subjects in each cohort entered the CRU on the […] of Day −1. Study eligibility was re-confirmed upon admission to the CRU, and subjects remained in the CRU overnight prior to dosing on Day 1. Subjects received a final morning dose of study drug on the last day of dosing. Subjects were discharged from the CRU following sample collection on Day 11. Dosage administration was supervised by study personnel and all subjects completed dosing per protocol. […] Subjects returned to the CRU on Day 23 (+2 days) for final follow-up safety assessments.

Data set [2] concerns the target CYP2C9 (Homo sapiens, UniProt P11712). The data set can be described thus: CYP inhibition in vitro. Type of data set: in vitro ADME.
The nature of data set [3]: plasma protein binding, monkey. Type of data set: in vitro ADME. Particulars: in vitro.
The nature of data set [4]: plasma protein binding, human. Type of data set: in vitro ADME. Particulars: in vitro.
The nature of data set [5]: in vitro genotoxicity: numerical chromosomal aberrations. Type of data set: cell-based.
The target of data set [6] is T1, wtALK2 (Homo sapiens, UniProt Q04771).
T1 sequence (Q04771 21-509): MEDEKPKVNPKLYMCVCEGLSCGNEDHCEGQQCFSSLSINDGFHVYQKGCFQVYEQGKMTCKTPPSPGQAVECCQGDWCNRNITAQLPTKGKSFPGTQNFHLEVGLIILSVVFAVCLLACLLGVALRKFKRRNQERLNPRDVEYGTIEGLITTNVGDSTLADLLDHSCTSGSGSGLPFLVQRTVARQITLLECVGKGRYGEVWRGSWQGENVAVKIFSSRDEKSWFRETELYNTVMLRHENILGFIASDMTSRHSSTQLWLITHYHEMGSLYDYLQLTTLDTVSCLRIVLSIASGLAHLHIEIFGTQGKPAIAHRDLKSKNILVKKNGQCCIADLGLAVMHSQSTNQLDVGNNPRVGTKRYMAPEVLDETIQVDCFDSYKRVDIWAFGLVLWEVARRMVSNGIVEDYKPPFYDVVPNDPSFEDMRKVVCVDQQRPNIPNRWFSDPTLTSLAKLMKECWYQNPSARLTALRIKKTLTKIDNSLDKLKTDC
The data set can be described thus: wtALK2 functional assays. Type of data set: biochemical. Particulars: several functional assays; read-out: wtALK2 activity potency (IC50).

Data set [7] is described as follows: safety pharmacology studies (CNS, respiratory, cardiovascular). Type of data set: in vivo. Particulars: HEDs exceeding likely human daily clinical dose ranges (5 to 200 mg).
The target in data set [8] is CYP3A4 (Homo sapiens, UniProt P08684). The data set can be described thus: CYP inhibition in vitro. Type of data set: in vitro ADME.
CYP3A4, sequence (P08684 whole entry): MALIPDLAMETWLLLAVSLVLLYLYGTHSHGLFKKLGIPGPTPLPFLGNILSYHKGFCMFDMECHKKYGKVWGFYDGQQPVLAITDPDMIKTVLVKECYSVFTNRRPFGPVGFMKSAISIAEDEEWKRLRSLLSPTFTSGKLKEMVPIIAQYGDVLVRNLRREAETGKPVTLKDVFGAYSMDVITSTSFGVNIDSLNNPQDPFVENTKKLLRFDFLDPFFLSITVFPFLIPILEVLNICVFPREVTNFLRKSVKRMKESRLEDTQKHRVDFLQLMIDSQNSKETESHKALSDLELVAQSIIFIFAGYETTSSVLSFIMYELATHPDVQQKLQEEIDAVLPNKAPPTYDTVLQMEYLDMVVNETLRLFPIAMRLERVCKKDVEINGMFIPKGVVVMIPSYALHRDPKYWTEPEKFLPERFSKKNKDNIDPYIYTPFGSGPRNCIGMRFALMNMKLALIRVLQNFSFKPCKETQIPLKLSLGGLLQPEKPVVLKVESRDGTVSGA

CYP2C9, sequence (P11712 whole entry): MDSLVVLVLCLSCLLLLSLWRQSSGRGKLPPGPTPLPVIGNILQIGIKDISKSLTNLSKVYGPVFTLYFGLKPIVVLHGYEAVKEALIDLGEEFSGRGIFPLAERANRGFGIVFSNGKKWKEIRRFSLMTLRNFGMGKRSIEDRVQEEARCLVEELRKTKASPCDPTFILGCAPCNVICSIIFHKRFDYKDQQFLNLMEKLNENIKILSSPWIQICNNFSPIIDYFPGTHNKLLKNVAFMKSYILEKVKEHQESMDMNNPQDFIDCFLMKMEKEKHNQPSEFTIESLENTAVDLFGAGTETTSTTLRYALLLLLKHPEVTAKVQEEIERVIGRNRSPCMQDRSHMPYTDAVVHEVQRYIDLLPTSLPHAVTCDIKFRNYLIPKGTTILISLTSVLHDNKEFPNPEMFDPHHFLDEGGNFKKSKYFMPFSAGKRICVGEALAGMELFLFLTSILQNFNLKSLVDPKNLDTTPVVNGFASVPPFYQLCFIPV

One may read the IC50 as the concentration at which inhibition is half-maximal. Regarding `COc1cc(-n2cnc(Nc3nc(N4CCC[C@H]4C(N)=O)nc4sccc34)c2)cc(OC)c1OC.O=C(O)CC(O)(CC(=O)O)C(=O)O` [Compound A], the “grade 3 or 4 adverse events” value in data set [1] (Part 2, 5 mg to 20 mg QD over 7 days) is listed as “no grade 3 or 4 adverse events”. Further, the safety and tolerability entry in data set [1] (Part 2, multiple ascending oral doses 5 mg to 20 mg QD over 7 days) was “safe and generally well tolerated”. Moreover, the CYP2C9 inhibition result in data set [2] is reported as “is an inhibitor”. The plasma protein binding in data set [3] and in data set [4] was ≥ 99.9% in each case. Also, the “induction of numerical chromosomal aberrations” value in data set [5] is given as “negative”. Besides, the IC50 in data set [6] is < 0.1 µM. In data set [7], the “adverse central nervous system, respiratory, or cardiovascular issues” value was “no adverse central nervous system, respiratory, or cardiovascular issues”. The CYP3A4 inhibition result in data set [8] is listed as “is an inhibitor”.
